A short description of the data set: Acid dissociation constant (pKa) by potentiometric titration (JIS K 0070:1992). The source says:
The acid dissociation constant (pKa) is a parameter indicating the degree of dissociation of an acid. When the ionization constant of an acid is Ka, the acid dissociation constant is defined by pKa=−log10 Ka.
For orientation: pKa means the negative logarithm of the acid dissociation constant. The low end stands for a group that gives up its proton readily, the high end for a group that holds its proton tightly. As for `O=C(O)c1ccc(O)cc1` [4-hydroxybenzoic acid], the pKa was at most 5. Turning to `O=C(O)CC(O)(CC(=O)O)C(=O)O` [Citric acid, citric acid], the pKa was at most 5.

Take `O=C(O)c1cccc(C(=O)O)c1` [Isophthalic acid, isophthalic acid]: the pKa was at most 5. The figure for `O=P(O)(O)c1ccccc1` [Phenylphosphonic acid] is at most 5.

The values above are taken from patent US20260212886A1, “MAGNETIC RECORDING MEDIUM AND CARTRIDGE” (Sony Group Corporation, priority 2023, published 2026).
